Data set [1] in a line: logP by HPLC-MS (HCOOH or neutral).
Data set [2] deals with green peach aphid (Myzus persicae). The data set is described as follows: Myzus persicae spray test. The class given is in vivo. The settings on record: foliar, 144 h, read-out: efficacy in % (aphids killed). The method, then: Myzus persicae—Spray Test
Solvent: 78 parts by weight of acetone • • 1.5 parts by weight of dimethylformamide
Emulsifier: 0.5 parts by weight of alkylaryl polyglycol ether
To produce a suitable active compound formulation, 1 part by weight of active compound is mixed with the stated amounts of solvent and emulsifier, and the concentrate is diluted with emulsifier-containing water to the desired concentration.
Discs of Chinese cabbage leaves (Brassica pekinensis) infested by all stages of the green peach aphid (Myzus persicae) are sprayed with an active compound formulation of the desired concentration.
After 6 days, the efficacy in % is determined. 100% means that all the aphids have been killed; 0% means that none of the aphids have been killed.

The mark [3] stands for this setting: HCOOH (formic acid), logP (HCOOH), HPLC-MS, HCOOH.
Where [4] appears, read: application rate 500 g/ha, spray on infested Chinese cabbage leaf discs, after 6 days.
The mark [5] stands for this setting: logP (neutral), HPLC-MS, neutral.

Structures are written as SMILES. Like-named read-outs stand apart in the source and are kept apart here.

This note sets out measurements from patent US20150284380A1, “NOVEL HETEROCYCLIC COMPOUNDS AS PEST CONTROL AGENTS” (BAYER CROPSCIENCE AG, priority 2012, published 2015).

For the compound `c1cnc(-c2cccc(-c3cnn(-c4cnccn4)c3)n2)nc1` [Example 6], the chromatographic logP – broadly, a lipophilicity value derived from retention on a column – in data set [1] (setting [3]) was 1.65. Besides, the pest or weed control at 500 g/ha in data set [2] (setting [4]) was found to be 100%.
`c1cnc(-c2cccc(-c3cnn(-c4ccnnc4)c3)n2)nc1` [Example 5] came in with a chromatographic logP in data set [1] (setting [3]) of 1.23. Also, the pest or weed control at 500 g/ha in data set [2] (setting [4]) is 90%.
`c1cnc(-c2cccc(-c3cnc(-c4cn[nH]c4)s3)n2)nc1` [Example 9, 2-{6-[2-(1H-Pyrazol-4-yl)-1,3-thiazol-5-yl]pyridin-2-yl}pyrimidine] yielded a chromatographic logP in data set [1] of 1.35. For the same compound, the pest or weed control at 500 g/ha in data set [2] (in Brassica rapa) worked out at 90%.
Consider `CS(=O)(=O)NC(=O)c1cccc(-c2cnc(-c3ccnnc3)s2)n1` [Example 4], for which the chromatographic logP in data set [1] (setting [3]) is 1.36. Also, the pest or weed control at 500 g/ha in data set [2] (setting [4]) came to 100%.
As to `Cn1cc(-n2cc(-c3cccc(-c4ncccn4)n3)cn2)cn1` [Example 7], the chromatographic logP in data set [1] (setting [3]) amounted to 1.37. In data set [2] (setting [4]), the pest or weed control at 500 g/ha came out at 100%.
On to `c1cnc(-c2cccc(-c3cnn(-c4cnsc4)c3)n2)nc1` [Example 2, 2-{6-[1-(isothiazol-4-yl)-1H-pyrazol-4-yl]pyridin-2-yl}pyrimidine], for which the chromatographic logP in data set [1] (setting [3]) was 1.65; in data set [1] (setting [5]), 1.64.
In turn, `c1cnc(-c2cccc(-c3cnc(-c4cncs4)s3)n2)nc1` [Example 1, 5-[6-(Pyrimidin-2-yl)pyridin-2-yl]-2,5′-bi-1,3-thiazole] returned a chromatographic logP in data set [1] (setting [3]) of 1.76. The “logP (HCOOH)” value in data set [1] (HPLC-MS, HCOOH) amounted to 1.74. For the same compound, the pest or weed control at 500 g/ha in data set [2] (setting [4]) came out at 80%.
On to `c1cnc(-c2cccc(-c3cnc(-c4ccnnc4)s3)n2)nc1` [Example 3, 4-{5-[6-(Pyrimidin-2-yl)pyridin-2-yl]-1,3-thiazol-2-yl}pyridazine], for which the chromatographic logP in data set [1] (setting [3]) came to 1.37; in data set [1] (neutral, logP (neutral), HPLC-MS) it was 1.4. In data set [2] (setting [4]), the pest or weed control at 500 g/ha turned out to be 90%.
`c1cnc(-c2cccc(-c3cnc(-c4cnsc4)s3)n2)nc1` [Example 10] had a chromatographic logP in data set [1] (setting [3]) of 1.91.
Consider `Cn1cc(-c2ncc(-c3cccc(-c4ncccn4)n3)s2)cn1` [Example 8, 2-{6-[2-(1-Methyl-1H-pyrazol-4-yl)-1,3-thiazol-5-yl]pyridin-2-yl}pyrimidine], for which the chromatographic logP in data set [1] (setting [5]) was found to be 1.56. In data set [2] (setting [4]), the pest or weed control at 500 g/ha came out at 100%.
Compound `CS(=O)(=O)NC(=O)c1cccc(-c2cnc(-c3cnsc3)s2)n1` [Example 12] gave a chromatographic logP in data set [1] (setting [3]) of 1.9. Besides, the pest or weed control at 500 g/ha in data set [2] (setting [4]) turned out to be 90%.
The matching figures for `FC(F)(F)c1cccc(-c2cnc(-c3cnsc3)s2)n1` [Example 11]: 3.13 and 90%.
